{"source": "patent US20250026770A1", "about": "“NOVEL BORONSOME FACILITATING DIAGNOSIS AND TREATMENT” (PEKING UNIVERSITY, priority 2021, published 2025)", "system": "DNA repair system", "assay": "γ-h2ax staining", "text": "In terms of integration of radiotherapy and chemotherapy, the preferred drug for encapsulation was Doxorubicin. […] Subsequently, we considered that if we could start from the principles of BNCT and selected individual drugs that disrupt the DNA replication process, its efficacy could be further enhanced. Therefore, a poly(ADP-ribose)polymerase (PARP) inhibitor (olaparib) was selected.", "data": [{"smiles": "O=C(c1cc(Cc2n[nH]c(=O)c3ccccc23)ccc1F)N1CCN(C(=O)C2CC2)CC1", "note": "[olaparib]", "values": [{"measurement": "Interference on the DNA repair system", "value": "verified its interference on the DNA repair system"}]}]}
